Data on 48 compounds can be found in patent US20090143279A1 (priority 2007, published 2009).

Where “and” joins values, the source holds several entries; their conditions need not be identical. Identical values can stand only once. Counter-ions that a name gives are not always drawn. Where a SMILES comes first, the peptide text is derived from it.

One experiment concerns cytochrome c. The format is cell-based, mouse.
Settings: not given
In the case of `NC1(C(=O)O)CC1` [aminocyclopropanecarboxylic acid], the “cyt c (composite Z-score vs DMSO)” value is listed as 0.213.

`CCN(CC)CC#CCOC(=O)C(O)(c1ccccc1)C1CCCCC1` (centres unmarked) [oxybutynin] displayed a cyt c of −0.352.

As to `Oc1ccc(O)cc1` [hydroquinone], the “cyt c (composite Z-score vs DMSO)” value was −4.999.

The compound `NC(=O)c1ncn([C@@H]2O[C@H](CO)[C@@H](O)[C@H]2O)n1` [ribavirin] came in with a cyt c of −0.336.

The compound `Oc1ccc(Cl)cc1` [parachlorophenol] registered a cyt c of 0.036.

As to `O=c1c(-c2ccc(O)cc2)coc2cc(O)cc(O)c12` [genistein], the “cyt c (composite Z-score vs DMSO)” value was 0.295.

Regarding `COc1c2ccoc2c(OC)c2oc(=O)ccc12` [isopimpinellin], the cyt c stood at 0.230.

As to `CC(=O)N1CCN(c2ccc(OCC3COC(Cn4ccnc4)(c4ccc(Cl)cc4Cl)O3)cc2)CC1` (centres unmarked) [ketoconazole], the cyt c was found to be 0.406 and the “cyt c (composite Z-score vs DMSO mock-treated wells)” value is listed as 0.109.

Consider `C[N+](C)(C)CCO` [choline], for which the “cyt c (composite Z-score vs DMSO)” value amounted to 0.713.

In the case of `Cc1n[nH]c(=O)[nH]c1=O` [6-azathymine], the cyt c was found to be 0.583.

With `Nc1c2c(nc3ccccc13)CCCC2` [9-amino-1,2,3,4-tetrahydroacridine], the “cyt c (composite Z-score vs DMSO)” value worked out at 0.967.

On to `C[C@]12C=CC(=O)C=C1CC[C@H]1[C@@H]3C[C@@H](O)[C@](O)(C(=O)CO)[C@@]3(C)C[C@H](O)[C@@]12F` [triamcinolone], for which the cyt c is listed as −1.483 and the “cyt c (composite Z-score vs DMSO)” value is listed as 0.087.

`COc1ccc(-c2ccc(=N)n(CCCC(=O)O)n2)cc1` [gabazine] returned a cyt c of −0.094.

`CN(C)CCC=C1c2ccccc2COc2ccccc21` [doxepin]: the cyt c came out at 1.151 and the “cyt c (composite Z-score vs DMSO)” value is −0.095.

For `CN1[C@@H]2CC[C@H]1C[C@@H](OC(c1ccccc1)c1ccccc1)C2` [benztropine], the “cyt c (composite Z-score vs DMSO mock-treated wells)” value was −1.170.

As to `O=C(O)c1cccnc1` [niacin], the “cyt c (composite Z-score vs DMSO)” value was 0.736 and 1.132.

Regarding `CC[N+](C)(C)Cc1ccccc1Br` [bretylium], the cyt c was 0.560 and the “cyt c (composite Z-score)” value turned out to be 0.295.

Take `CNC(=O)CSP(=S)(OC)OC` [dimethoate]: the cyt c was found to be 0.837.

On to `CN1[C@@H]2CC[C@H]1C[C@@H](OC(=O)C(CO)c1ccccc1)C2` (some centres unmarked) [atropine sulfate], for which the cyt c is given as 0.071.

With `NCCCCCC(=O)O` [6-aminocaproic acid], the “cyt c (composite Z-score vs DMSO mock-treated wells)” value is −0.680.

`CC1(C)[C@@H](OC(=O)CCC(=O)O)CC[C@]2(C)[C@H]3C(=O)C=C4[C@@H]5C[C@@](C)(C(=O)O)CC[C@]5(C)CC[C@@]4(C)[C@]3(C)CC[C@@H]12` [carbenoxolone] showed a cyt c of 0.145.

The compound `Nc1cc(C(Cl)=C(Cl)Cl)c(S(N)(=O)=O)cc1S(N)(=O)=O` [clorsulon] returned a cyt c of −0.186.

As for `Cn1cc[nH]c1=S` [methimazole], the “cyt c (composite Z-score vs DMSO)” value is recorded as 1.745 and the “cyt c (composite Z-score)” value is given as −0.372.

Regarding `CCC1(c2ccccc2)C(=O)NCNC1=O` [primidone], the cyt c was 0.296 and 0.193.

As for `O=C(NCC(O)CO)c1c(I)c(C(=O)NCC(O)CO)c(I)c(N(CCO)C(=O)CO)c1I` (centres unmarked) [ioversol], the cyt c is given as 0.129.

Take `c1ccc(-c2ccc(C(c3ccccc3)n3ccnc3)cc2)cc1` (centres unmarked) [bifonazole]: the cyt c was 0.179.

Compound `CC1CCC(C(C)C)C(O)C1` (centres unmarked) [menthol] came in with a cyt c of −0.074.

The experiment is the same for the next values; noted with them: composite Z-score vs mock-treated (DMSO) wells; concentration of each compound in μM.
In the case of `COc1ccc(-c2cc(C(F)F)nn2-c2ccc(S(N)(=O)=O)cc2)cc1F` [deracoxib], the cyt c turned out to be 0.350.

As for `CCc1ccc(CCOc2ccc(CC3SC(=O)NC3=O)cc2)nc1` (centres unmarked) [pioglitazone], the cyt c was −0.742.

`CC(=O)O[C@]1(C(C)=O)CC[C@H]2[C@@H]3C=C(C)C4=CC(=O)CC[C@]4(C)[C@H]3CC[C@@]21C` [megestrol acetate]: the cyt c amounted to 0.810.

In turn, `COCC(=O)Nc1c(I)c(C(=O)NCC(O)CO)c(I)c(C(=O)N(C)CC(O)CO)c1I` (centres unmarked) [iopromide] gave a cyt c of 0.263.

`CC[C@H]1OC(=O)[C@H](C)[C@@H](O[C@H]2C[C@@](C)(OC)[C@@H](O)[C@H](C)O2)[C@H](C)[C@@H](O[C@@H]2O[C@H](C)C[C@H](N(C)C)[C@H]2O)[C@](C)(O)C[C@@H](C)[C@@H]2N[C@@H](COCCOC)O[C@H]([C@H]2C)[C@]1(C)O` [dirithromycin] registered a cyt c of 0.356.

In turn, `C=N[C@@H](C(=O)N[C@@H]1C(=O)N2[C@@H]1SC(C)(C)[C@@H]2C(=O)O)c1ccccc1` [metampicillin] showed a cyt c of 0.821.

In turn, `CC(CCc1ccc(O)cc1)NCCc1ccc(O)c(O)c1` (centres unmarked) [dobutamine] displayed a cyt c of −0.289.

The compound `CC(NCCc1ccc(O)cc1)C(O)c1ccc(O)cc1` (centres unmarked) [ritodrine] displayed a cyt c of −0.072.

In turn, `CC(=O)N(CC(O)CN(C(C)=O)c1c(I)c(C(=O)NCC(O)CO)c(I)c(C(=O)NCC(O)CO)c1I)c1c(I)c(C(=O)NCC(O)CO)c(I)c(C(=O)NCC(O)CO)c1I` (centres unmarked) [iodixanol] came in with a cyt c of −0.092.

With `Cc1cc(O)c(C=O)c2c1C(=O)Oc1c(COC(=O)/C=C/C(=O)O)c(O)c(C(=O)O)c(C)c1O2` [fumarprotocetraric acid], the cyt c is on record as 0.505.

`CC(C)=CCC/C(C)=C/COC(=O)C=Cc1ccccc1` [geranyl cinnamate] yielded a cyt c of −0.107.

In turn, `O=C(NC(Cc1cc(=O)[nH]c2ccccc12)C(=O)O)c1ccc(Cl)cc1` (centres unmarked) [rebamipide] gave a cyt c of −0.372.

On to `C[C@H]1[C@H](C)CC[C@]2(C(=O)O)CC[C@]3(C)C(=CC[C@@H]4[C@@]5(C)C[C@@H](O)[C@H](O)[C@@](C)(CO)[C@@H]5[C@H](O)C[C@]43C)[C@H]12` [madecassic acid], for which the cyt c stood at 0.241.

Compound `CC(C)N1CCN(c2ccc(OCC3COC(Cn4cncn4)(c4ccc(Cl)cc4Cl)O3)cc2)CC1` (centres unmarked) [terconazole] had a cyt c of 0.552.

`N[C@@H](Cc1ccccc1)C(=O)N[C@@H](Cc1ccc(O)cc1)C(=O)O` [phenylalanyltyrosine] (H-Phe-Tyr-OH) had a cyt c of −0.342.

For the compound `O=C1C(O)=C([C@H]2CC[C@H](c3ccc(Cl)cc3)CC2)C(=O)c2ccccc21` [atovaquone], the cyt c is recorded as −0.124.

In turn, `COC(=O)C1=CO[C@@H](C)[C@@H]2CN3CCc4c([nH]c5ccccc45)[C@@H]3C[C@H]12` [tetrahydroalstonine] gave a cyt c of 1.439.

Consider `CCCCCCCC/C=C/CCCCCCCCOP(=O)([O-])OCC[N+](C)(C)C` [elaidylphosphocholine], for which the cyt c was −0.840.

Regarding `C=C(NC(=O)C(=C)NC(=O)c1csc(C2=N[C@@H]3c4csc(n4)[C@H]4NC(=O)c5csc(n5)[C@H]([C@](C)(O)[C@@H](C)O)NC(=O)[C@H]5CSC(=N5)/C(=C/C)NC(=O)[C@H]([C@@H](C)O)NC(=O)c5csc(n5)[C@]3(CC2)NC(=O)[C@H](C)NC(=O)C(=C)NC(=O)[C@H](C)NC(=O)[C@H]([C@@H](C)CC)N[C@@H]2C=Cc3c([C@H](C)O)cc(nc3[C@H]2O)C(=O)O[C@@H]4C)n1)C(N)=O` [thiostrepton], the cyt c is on record as −1.134.

Staying with this experiment, now noted: normalized score (composite Z-score vs DMSO mock-treated wells); compound concentration (μM).
`CC(C)(C)NC[C@H](O)COc1ccccc1C1CCCC1` [penbutolol]: the cyt c turned out to be 0.099.

In the case of `Clc1ccc(C(Cn2ccnc2)OCc2c(Cl)cccc2Cl)c(Cl)c1` (centres unmarked) [isoconazole], the cyt c is given as −0.572.
